According to ChEMBL document CHEMBL2331256, “Spiro heterocycles as potential inhibitors of SIRT1: Pd/C-mediated synthesis of novel N-indolylmethyl spiroindoline-3,2'-quinazolines” (Bioorg Med Chem Lett, 2013):

Legend:
[1] = biological target: NAD-dependent histone deacetylase SIR2 (Saccharomyces cerevisiae S288c) (UniProt P06700); assay: Inhibition of Sir 2 protein mediated transcriptional silencing at the telomeric locus in yeast at 50 uM after 24 to 48 hrs by URA3 reporter gene assay
Saccharomyces cerevisiae = assay: Cytotoxicity against yeast at 50 uM; assay type: organism-based; details: in vivo
[2] = biological target: NAD-dependent histone deacetylase SIR2 (Saccharomyces cerevisiae S288c) (UniProt P06700); assay: Inhibition of Sir 2 protein mediated transcriptional silencing at the telomeric locus in yeast at 1 uM after 24 to 48 hrs by URA3 reporter gene assay
[3] = biological target: NAD-dependent histone deacetylase SIR2 (Saccharomyces cerevisiae S288c) (UniProt P06700); assay: Inhibition of Sir 2 protein mediated transcriptional silencing at the telomeric locus in yeast at 100 uM after 24 to 48 hrs by URA3 reporter gene assay
[4] = biological target: NAD-dependent histone deacetylase SIR2 (Saccharomyces cerevisiae S288c) (UniProt P06700); assay: Inhibition of Sir 2 protein mediated transcriptional silencing at the telomeric locus in yeast at 30 uM after 24 to 48 hrs by URA3 reporter gene assay
[5] = biological target: NAD-dependent histone deacetylase SIR2 (Saccharomyces cerevisiae S288c) (UniProt P06700); assay: Inhibition of Sir 2 protein mediated transcriptional silencing at the telomeric locus in yeast at 10 uM after 24 to 48 hrs by URA3 reporter gene assay
[6] = biological target: NAD-dependent histone deacetylase SIR2 (Saccharomyces cerevisiae S288c) (UniProt P06700); assay: Inhibition of Sir 2 protein mediated transcriptional silencing at the telomeric locus in yeast after 24 to 48 hrs by URA3 reporter gene assay

Sequence of NAD-dependent histone deacetylase SIR2 (Saccharomyces cerevisiae S288c) (P06700 whole entry): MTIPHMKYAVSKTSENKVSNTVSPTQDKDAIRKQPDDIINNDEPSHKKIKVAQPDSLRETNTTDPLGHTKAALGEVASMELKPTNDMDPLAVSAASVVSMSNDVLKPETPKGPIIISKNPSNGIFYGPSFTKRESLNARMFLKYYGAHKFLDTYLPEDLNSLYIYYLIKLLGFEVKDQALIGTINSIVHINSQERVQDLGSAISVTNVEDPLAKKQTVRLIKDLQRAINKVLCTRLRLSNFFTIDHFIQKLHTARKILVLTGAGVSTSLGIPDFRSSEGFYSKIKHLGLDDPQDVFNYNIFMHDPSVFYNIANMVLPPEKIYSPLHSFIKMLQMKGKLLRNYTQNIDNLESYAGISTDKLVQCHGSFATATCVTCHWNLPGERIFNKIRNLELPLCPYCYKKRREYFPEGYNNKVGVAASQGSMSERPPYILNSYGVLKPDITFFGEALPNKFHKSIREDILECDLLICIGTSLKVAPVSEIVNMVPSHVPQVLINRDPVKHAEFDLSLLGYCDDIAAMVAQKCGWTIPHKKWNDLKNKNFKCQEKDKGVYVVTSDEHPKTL

SMILES | inhibition [1] | Activity (Saccharomyces cerevisiae) | inhibition [2] | inhibition [3] | inhibition [4] | inhibition [5] | inhibition [6]
Cc1ccc2c(c1)cc(CN1C(=O)C3(NC(=O)c4ccccc4N3)c3ccccc31)n2S(C)(=O)=O (stereo not drawn) | 40.9% | Non-toxic |  |  |  |  | 
CS(=O)(=O)n1c(CN2C(=O)C3(NC(=O)c4ccccc4N3)c3ccccc32)cc2ccccc21 (stereo not drawn) | 13.9% | Non-toxic |  |  |  |  | 
CS(=O)(=O)n1c(CN2C(=O)C3(NC(=O)c4ccccc4N3)c3ccccc32)cc2cc(Br)ccc21 (stereo not drawn) | 38.5% | Non-toxic |  |  |  |  | 
CS(=O)(=O)n1c(CN2C(=O)C3(NC(=O)c4ccccc4N3)c3ccccc32)cc2cc(Cl)ccc21 (stereo not drawn) | 30.9% | Non-toxic |  |  |  |  | 
Cc1ccc(S(=O)(=O)n2c(CN3C(=O)C4(NC(=O)c5ccccc5N4)c4ccccc43)cc3cc(Br)ccc32)cc1 (stereo not drawn) | 16.4% | Non-toxic |  |  |  |  | 
COc1ccc2c(c1)cc(CN1C(=O)C3(NC(=O)c4ccccc4N3)c3ccccc31)n2S(=O)(=O)c1ccc(C)cc1 (stereo not drawn) | 41% | Non-toxic | 12% | 61% | 32% | 25% | Dose-dependent effect
Cc1ccc(S(=O)(=O)n2c(CN3C(=O)C4(NC(=O)c5ccccc5N4)c4ccccc43)cc3cc(C(F)(F)F)ccc32)cc1 (stereo not drawn) | 38.4% | Non-toxic |  |  |  |  | 
CS(=O)(=O)n1c(CN2C(=O)C3(NC(=O)c4ccccc4N3)c3ccccc32)cc2cc(C(F)(F)F)ccc21 (stereo not drawn) | 39.6% | Non-toxic |  |  |  |  | 
Cc1ccc(S(=O)(=O)n2c(CN3C(=O)C4(NC(=O)c5ccccc5N4)c4ccccc43)cc3cc(C)ccc32)cc1 (stereo not drawn) | 1.2% | Non-toxic |  |  |  |  | 
COc1ccc2c(c1)cc(CN1C(=O)C3(NC(=O)c4ccccc4N3)c3ccccc31)n2S(C)(=O)=O (stereo not drawn) | 39% | Non-toxic | 9% | 67% | 29% | 20% | Dose-dependent effect
Cc1ccc(S(=O)(=O)n2c(CN3C(=O)C4(NC(=O)c5ccccc5N4)c4ccccc43)cc3ccccc32)cc1 (stereo not drawn) | 36.5% | Non-toxic |  |  |  |  | 
Cc1ccc(S(=O)(=O)n2c(CN3C(=O)C4(NC(=O)c5ccccc5N4)c4ccccc43)cc3cc(Cl)ccc32)cc1 (stereo not drawn) | 40.9% | Non-toxic | 18% | 56% | 37% | 30% | Dose-dependent effect
Cc1ccc(S(=O)(=O)n2c(CN3C(=O)C4(NC(=O)c5ccccc5N4)c4ccccc43)cc3cc(F)ccc32)cc1 (stereo not drawn) | 15.2% | Non-toxic |  |  |  |  | 
CS(=O)(=O)n1c(CN2C(=O)C3(NC(=O)c4ccccc4N3)c3ccccc32)cc2cc(F)ccc21 (stereo not drawn) | 30.3% | Non-toxic |  |  |  |  | 
